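Exposure lasted 48 hours, with cells grown in 96-well plates and compounds tested at five concentrations. GI50 marks 50% less growth.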 Active and inactive are the calls of the source. Rule as the data show it: active = GI50 up to about 1.1 µM and inactive = higher. A value given as a limit tells only on which side of the number the result lay.

Test systems include M14; COLO 205; UACC-257; NCI-H23; KM12; T47D; OVCAR-8; LOX IMVI; NCI/ADR-RES; SNB-19; HCC 2998; TK-10; A549; OVCAR-4; OVCAR-5; SK-MEL-5; MCF7; BT-549; HOP-92.
Experiment in all cases: growth of human tumour cells (NCI), 48 h

As for `CCOC(=O)c1cc(C2(O)CCN(Cc3ccccc3)C2=O)c(-c2cc(C)no2)[nH]1` (configuration not stated), the GI50 with M14 was 55 µM (inactive); in the test with COLO 205 it was 56.8 µM (inactive); with UACC-257, 75.9 µM (inactive); in the test on NCI-H23, 73.3 µM (inactive); with KM12 it was 37.8 µM (inactive); with T47D it was 17.9 µM (inactive). The GI50 is 37.3 µM (inactive) in the test with OVCAR-8; 29.5 µM (inactive) in the test on LOX IMVI; 38.5 µM (inactive) in the test with NCI/ADR-RES; 81.1 µM (inactive) with SNB-19; 92.9 µM (inactive) in the test with HCC 2998; 67.1 µM (inactive) in the test on TK-10. For the same molecule, the GI50 in the test on A549 was 40.1 µM (inactive); with OVCAR-4, 30.3 µM (inactive); in the test on OVCAR-5, 61.4 µM (inactive); with SK-MEL-5, 40 µM (inactive); in the test with MCF7 it was 47.4 µM (inactive); with BT-549 it was 66.2 µM (inactive).

For the molecule `CN(C)CCCn1cnc2cc(Cl)c(Cl)cc21`, the GI50 in the test on M14 was 16.6 µM (inactive); in the test with COLO 205 it was 79.3 µM (inactive); in the test on UACC-257, 19.8 µM (inactive); with NCI-H23, > 100 µM (inactive); in the test on KM12, > 100 µM (inactive); in the test on T47D, 59.7 µM (inactive). Moreover, the GI50 in the test on OVCAR-8 was > 100 µM (inactive); with LOX IMVI, 59.2 µM (inactive); in the test on NCI/ADR-RES, > 100 µM (inactive); in the test with SNB-19, > 100 µM (inactive); in the test on HCC 2998, 22 µM (inactive); with TK-10, 42.7 µM (inactive). Also, the GI50 was > 100 µM (inactive) with A549; > 100 µM (inactive) with OVCAR-4; > 100 µM (inactive) in the test on OVCAR-5; 53.1 µM (inactive) with SK-MEL-5; > 100 µM (inactive) in the test on MCF7; 66.7 µM (inactive) in the test on BT-549.

For the molecule `O=c1[nH]c2nc[nH]c2c(=O)n1C1CCCCC1`, the GI50 with M14, in the test with COLO 205, in the test with UACC-257, with NCI-H23, with KM12 and with T47D was > 100 µM (inactive) throughout. For the same molecule, the GI50 in the test on OVCAR-8, in the test with HOP-92, in the test with NCI/ADR-RES, in the test with SNB-19, with HCC 2998 and in the test with TK-10 was > 100 µM (inactive) in each case. Moreover, the GI50 with A549, with OVCAR-4, in the test with OVCAR-5, in the test on SK-MEL-5, in the test with MCF7 and with BT-549 was > 100 µM (inactive) each time.

On to `CCOC(=O)NC(OCCN(C)C)(C(F)(F)F)C(F)(F)F`, for which the GI50 in the test on M14, in the test with COLO 205, in the test on UACC-257, in the test on NCI-H23, in the test with KM12 and in the test on T47D was > 100 µM (inactive) each time. Moreover, the GI50 with OVCAR-8, with HOP-92, in the test on LOX IMVI, with NCI/ADR-RES, in the test with SNB-19 and in the test on HCC 2998 was > 100 µM (inactive) in each case. Further, the GI50 with TK-10, in the test with A549, with OVCAR-5, with SK-MEL-5, in the test with MCF7 and in the test with BT-549 was > 100 µM (inactive) throughout.

On to `C(=C\Nc1ccc(-c2ccccc2)cc1)/C=N/c1ccc(-c2ccccc2)cc1`, for which the GI50 in the test with M14, in the test with COLO 205, in the test on UACC-257, with NCI-H23, with KM12 and in the test with T47D was > 100 µM (inactive) in each case. Also, the GI50 in the test on OVCAR-8 was > 100 µM (inactive); in the test with HOP-92, > 100 µM (inactive); in the test on LOX IMVI it was > 100 µM (inactive); with NCI/ADR-RES it was > 100 µM (inactive); in the test with SNB-19, > 100 µM (inactive); with TK-10, 54.3 µM (inactive). The GI50 in the test on A549, in the test with OVCAR-4, with OVCAR-5, with SK-MEL-5, in the test on MCF7 and in the test on BT-549 was > 100 µM (inactive) each time.

As for `COc1ccc(C2C3CCc4ccccc4C3=NN2S(=O)(=O)c2ccc(/C=C/C(=O)O)cc2)cc1` (configuration not stated), the GI50 is 4.75 µM (inactive) in the test with M14; 2 µM (inactive) with COLO 205; < 0.01 µM (active) with NCI-H23; 1.82 µM (inactive) with KM12; 7.06 µM (inactive) in the test with T47D; 11 µM (inactive) in the test on OVCAR-8. In addition, the GI50 is 11.6 µM (inactive) in the test on HOP-92; 4.73 µM (inactive) with LOX IMVI; 1.75 µM (inactive) in the test on NCI/ADR-RES; 7.29 µM (inactive) in the test with SNB-19; 6.79 µM (inactive) in the test with TK-10; 5.11 µM (inactive) in the test with A549. In addition, the GI50 was 7.23 µM (inactive) in the test on OVCAR-4; 9.91 µM (inactive) with OVCAR-5; 4.01 µM (inactive) in the test with SK-MEL-5; 2.1 µM (inactive) with MCF7; 10.4 µM (inactive) in the test on BT-549.

Turning to `COc1ccc(NC(/C(C(=O)c2ccccc2)=C(\O)C(=O)/C=C(\O)c2ccccc2)c2ccc(OC)cc2)cc1` (configuration not stated), the GI50 in the test on M14 is 23.2 µM (inactive); with COLO 205, 31 µM (inactive); in the test with UACC-257 it was 40.7 µM (inactive); in the test with NCI-H23, 47 µM (inactive); with KM12, 30.9 µM (inactive); in the test with T47D, 24.5 µM (inactive). Moreover, the GI50 with OVCAR-8 is 59.6 µM (inactive); in the test on HOP-92, 7.6 µM (inactive); in the test with NCI/ADR-RES it was 40.3 µM (inactive); in the test on SNB-19 it was 65.8 µM (inactive); with HCC 2998, 26.6 µM (inactive); in the test with TK-10, 30.3 µM (inactive). Moreover, the GI50 was 28.6 µM (inactive) with A549; 30.5 µM (inactive) with OVCAR-4; > 100 µM (inactive) with OVCAR-5; 49.3 µM (inactive) in the test on SK-MEL-5; 39.5 µM (inactive) in the test on MCF7; 71.6 µM (inactive) in the test with BT-549.

Consider `COc1ccc(-n2c(=O)n(C)c(=O)n2-c2ccc(OC)cc2)cc1`, for which the GI50 with M14, in the test with COLO 205, in the test on UACC-257, in the test on NCI-H23, in the test on KM12 and in the test on T47D was > 100 µM (inactive) throughout. The GI50 with OVCAR-8 is > 100 µM (inactive); with HOP-92, > 100 µM (inactive); with LOX IMVI, 59.2 µM (inactive); with NCI/ADR-RES it was > 100 µM (inactive); in the test on SNB-19, > 100 µM (inactive); in the test on TK-10 it was > 100 µM (inactive). Besides, the GI50 in the test with A549, with OVCAR-5, with SK-MEL-5, in the test with MCF7 and with BT-549 was > 100 µM (inactive) throughout.

The record behind these values is ChEMBL document CHEMBL1201862, “PubChem BioAssay data set” (2004).
